What was measured:
Format in all cases: biochemical
CDK9/cyclin T1 = CDK9/cyclin T1 (Homo sapiens, UniProt P50750); test: Kinase assay CDK9/cyclin T1; details: Ki calculated (Cheng-Prusoff) from experimentally determined IC50 and Km,ATP; read-out: Kinase Inhibition Ki CDK9 - cyclin T1
Method: (§1) The compounds from the examples above were investigated for their ability to inhibit the enzymatic activity of various protein kinases. This was achieved by measurement of incorporation of radioactive phosphate from ATP into appropriate polypeptide substrates. Recombinant protein kinases and kinase complexes were produced or obtained commercially. Assays were performed using 96-well plates and appropriate assay buffers (typically 25 mM β-glycerophosphate, 20 mM MOPS, 5 mM EGTA, 1 mM DTT, 1 mM […], pH 7.4), into which were added 2-4 μg of active enzyme with appropriate substrates. The reactions were initiated by addition of Mg/ATP mix (15 mM MgCl2+100 μM ATP with 30-50 kBq per well of [γ-^32P]-ATP) and mixtures incubated as required at 30° C. Reactions were stopped on ice, followed by filtration through p81 filterplates or GF/C filterplates (Whatman Polyfiltronics, Kent, UK). After washing 3 times with 75 mM aq orthophosphoric acid, plates were dried, scintillant added and incorporated radioactivity measured in a scintillation counter (TopCount, Packard Instruments, Pangbourne, Berks, UK). Compounds for kinase assay were made up as 10 mM stocks in DMSO and diluted into 10% DMSO in assay buffer.

CDK1/cyclin B = CDK1/cyclin B (Homo sapiens, UniProt P06493); test: Kinase assay CDK1/cyclin B (radioactive phosphate incorporation); details: Ki calculated (Cheng-Prusoff) from experimentally determined IC50 and Km,ATP; read-out: Kinase Inhibition Ki CDK1 - cyclin B
Method: as §1, with “The reactions were initiated by addition of Mg/ATP mix (15 mM MgCl2+100 μM ATP with 30-50 kBq per well of [γ-^32P]-ATP) and mixtures incubated as required at 30° C.” left out

CDK2/cyclin E = CDK2/cyclin E (Homo sapiens, UniProt P24941); test: Kinase assay CDK2/cyclin E; details: Ki calculated (Cheng-Prusoff) from experimentally determined IC50 and Km,ATP; read-out: Kinase Inhibition Ki CDK2 - cyclin E
Method: as §1, with “The reactions were initiated by addition of Mg/ATP mix (15 mM MgCl2+100 μM ATP with 30-50 kBq per well of [γ-^32P]-ATP) and mixtures incubated as required at 30° C.” left out

CDK7/cyclin H = CDK7/cyclin H (Homo sapiens, UniProt P50613); test: Kinase assay CDK7/cyclin H; details: Ki calculated (Cheng-Prusoff) from experimentally determined IC50 and Km,ATP; read-out: Kinase Inhibition Ki CDK7 - cyclin H
Method: as §1

CDK2/cyclin A = CDK2/cyclin A (Homo sapiens, UniProt P24941); test: Kinase assay CDK2/cyclin A; details: Ki calculated (Cheng-Prusoff) from experimentally determined IC50 and Km,ATP; read-out: Kinase Inhibition Ki CDK2 - cyclin A
Method: as §1, with “The reactions were initiated by addition of Mg/ATP mix (15 mM MgCl2+100 μM ATP with 30-50 kBq per well of [γ-^32P]-ATP) and mixtures incubated as required at 30° C.” left out

CDK4/cyclin D1 = CDK4/cyclin D1 (Homo sapiens, UniProt P11802); test: Kinase assay CDK4/cyclin D1; details: Ki calculated (Cheng-Prusoff) from experimentally determined IC50 and Km,ATP; read-out: Kinase Inhibition Ki CDK4 - cyclin D1
Method: as §1

CDK7/cyclin H, sequence (P50613 whole entry, species assumed): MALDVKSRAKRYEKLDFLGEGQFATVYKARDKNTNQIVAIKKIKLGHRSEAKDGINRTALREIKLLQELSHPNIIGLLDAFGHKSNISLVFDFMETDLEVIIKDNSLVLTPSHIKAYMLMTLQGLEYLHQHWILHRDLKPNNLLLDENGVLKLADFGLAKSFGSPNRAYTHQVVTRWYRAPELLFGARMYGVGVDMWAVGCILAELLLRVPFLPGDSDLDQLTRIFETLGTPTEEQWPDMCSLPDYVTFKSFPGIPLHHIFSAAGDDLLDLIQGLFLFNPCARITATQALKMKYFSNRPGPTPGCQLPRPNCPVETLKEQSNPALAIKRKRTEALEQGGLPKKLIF
CDK7/cyclin H, sequence (P51946 whole entry partner, species assumed): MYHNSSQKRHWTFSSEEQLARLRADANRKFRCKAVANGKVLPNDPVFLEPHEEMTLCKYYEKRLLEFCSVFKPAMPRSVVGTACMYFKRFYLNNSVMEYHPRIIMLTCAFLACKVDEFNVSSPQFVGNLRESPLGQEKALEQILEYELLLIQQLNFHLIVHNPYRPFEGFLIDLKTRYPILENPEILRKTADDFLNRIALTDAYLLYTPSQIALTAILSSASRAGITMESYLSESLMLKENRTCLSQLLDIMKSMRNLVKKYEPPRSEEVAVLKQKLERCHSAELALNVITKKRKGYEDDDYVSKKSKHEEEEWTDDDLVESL
CDK1/cyclin B, sequence (P06493 whole entry, species assumed): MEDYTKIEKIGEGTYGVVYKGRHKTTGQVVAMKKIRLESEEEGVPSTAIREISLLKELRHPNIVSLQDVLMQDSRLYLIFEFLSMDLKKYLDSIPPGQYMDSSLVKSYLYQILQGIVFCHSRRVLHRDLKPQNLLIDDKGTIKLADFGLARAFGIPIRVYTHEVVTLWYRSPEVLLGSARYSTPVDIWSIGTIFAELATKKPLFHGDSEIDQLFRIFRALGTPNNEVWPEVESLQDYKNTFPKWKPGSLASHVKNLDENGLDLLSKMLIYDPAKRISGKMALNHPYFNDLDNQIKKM
CDK1/cyclin B, sequence (P14635 whole entry partner, species assumed): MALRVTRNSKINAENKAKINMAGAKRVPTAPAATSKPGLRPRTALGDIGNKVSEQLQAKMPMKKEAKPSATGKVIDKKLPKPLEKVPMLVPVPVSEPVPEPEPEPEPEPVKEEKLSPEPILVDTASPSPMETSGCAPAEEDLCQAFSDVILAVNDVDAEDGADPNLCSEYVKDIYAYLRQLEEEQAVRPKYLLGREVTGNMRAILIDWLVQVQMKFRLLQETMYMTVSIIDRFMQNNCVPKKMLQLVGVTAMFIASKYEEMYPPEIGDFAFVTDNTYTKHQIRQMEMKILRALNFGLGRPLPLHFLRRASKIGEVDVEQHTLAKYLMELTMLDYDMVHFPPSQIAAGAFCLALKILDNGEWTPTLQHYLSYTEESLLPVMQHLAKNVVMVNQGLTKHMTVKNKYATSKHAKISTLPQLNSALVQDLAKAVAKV
CDK9/cyclin T1, sequence (P50750 whole entry, species assumed): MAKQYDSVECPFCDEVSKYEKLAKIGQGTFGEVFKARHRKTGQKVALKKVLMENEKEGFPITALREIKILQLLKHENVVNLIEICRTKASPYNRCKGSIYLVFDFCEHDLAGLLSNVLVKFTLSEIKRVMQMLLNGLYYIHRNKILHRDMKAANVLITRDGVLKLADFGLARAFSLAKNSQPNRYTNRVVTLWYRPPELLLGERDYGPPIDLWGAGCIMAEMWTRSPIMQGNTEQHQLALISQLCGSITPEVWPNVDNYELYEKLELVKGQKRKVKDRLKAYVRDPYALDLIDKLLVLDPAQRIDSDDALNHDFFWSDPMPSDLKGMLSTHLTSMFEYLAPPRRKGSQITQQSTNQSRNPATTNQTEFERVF
CDK9/cyclin T1, sequence (O60563 whole entry partner, species assumed): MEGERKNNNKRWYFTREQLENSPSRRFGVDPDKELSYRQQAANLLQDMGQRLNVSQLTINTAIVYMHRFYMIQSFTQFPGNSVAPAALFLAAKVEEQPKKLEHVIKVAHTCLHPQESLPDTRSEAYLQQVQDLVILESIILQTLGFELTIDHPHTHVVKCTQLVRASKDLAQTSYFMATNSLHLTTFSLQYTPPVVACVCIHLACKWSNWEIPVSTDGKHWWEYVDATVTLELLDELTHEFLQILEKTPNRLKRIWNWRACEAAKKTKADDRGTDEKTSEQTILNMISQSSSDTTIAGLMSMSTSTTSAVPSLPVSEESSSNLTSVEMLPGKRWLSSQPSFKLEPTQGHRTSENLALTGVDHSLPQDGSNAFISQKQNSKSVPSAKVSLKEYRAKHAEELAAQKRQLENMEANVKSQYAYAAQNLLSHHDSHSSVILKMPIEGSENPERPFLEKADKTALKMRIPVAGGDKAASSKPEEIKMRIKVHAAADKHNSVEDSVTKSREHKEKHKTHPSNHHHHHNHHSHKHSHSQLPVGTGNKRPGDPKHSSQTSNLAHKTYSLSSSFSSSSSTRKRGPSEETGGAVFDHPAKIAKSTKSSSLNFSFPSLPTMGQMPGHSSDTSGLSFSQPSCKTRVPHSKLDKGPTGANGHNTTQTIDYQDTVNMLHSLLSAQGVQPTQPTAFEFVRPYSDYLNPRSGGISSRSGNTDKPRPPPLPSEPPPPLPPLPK
CDK4/cyclin D1, sequence (P11802 whole entry, species assumed): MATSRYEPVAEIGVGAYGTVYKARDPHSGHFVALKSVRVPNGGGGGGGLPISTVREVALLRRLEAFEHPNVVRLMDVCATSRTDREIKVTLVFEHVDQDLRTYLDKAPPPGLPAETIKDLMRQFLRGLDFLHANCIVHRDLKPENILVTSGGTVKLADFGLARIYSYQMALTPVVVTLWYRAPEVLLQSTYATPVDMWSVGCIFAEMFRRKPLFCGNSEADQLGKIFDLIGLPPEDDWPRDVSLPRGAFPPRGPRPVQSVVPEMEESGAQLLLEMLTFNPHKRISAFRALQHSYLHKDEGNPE
CDK4/cyclin D1, sequence (P24385 whole entry partner, species assumed): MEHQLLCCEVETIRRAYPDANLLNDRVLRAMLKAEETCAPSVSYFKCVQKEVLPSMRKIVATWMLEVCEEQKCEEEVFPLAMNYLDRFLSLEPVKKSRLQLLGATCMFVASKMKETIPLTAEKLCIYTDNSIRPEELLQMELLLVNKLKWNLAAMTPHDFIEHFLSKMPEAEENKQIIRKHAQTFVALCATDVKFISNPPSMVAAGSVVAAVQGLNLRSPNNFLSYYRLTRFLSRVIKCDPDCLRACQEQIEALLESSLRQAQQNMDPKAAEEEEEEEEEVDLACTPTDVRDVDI

SMILES	Ki (CDK9/cyclin T1) [nM]	Ki (CDK1/cyclin B) [nM]	Ki (CDK2/cyclin E) [nM]	Ki (CDK7/cyclin H) [nM]	Ki (CDK2/cyclin A) [nM]	Ki (CDK4/cyclin D1) [nM]
Cc1c(-c2ccnc(Nc3ccc(O)cc3)n2)sc(=O)n1C [Compound 3, 5-[2-(4-Hydroxy-phenylamino)-pyrimidin-4-yl]-3,4-dimethyl-3H-thiazol-2-one]	0.7	–	–	–	–	–
Cc1cc(Nc2nccc(-c3sc(=O)n(C)c3C)n2)ccc1F [Compound 12, 5-[2-(4-Fluoro-3-methyl-phenylamino)-pyrimidin-4-yl]-3,4-dimethyl-3H-thiazol-2-one]	24	380	66	–	–	–
Cc1c(-c2ccnc(Nc3cccc(C(F)(F)F)c3)n2)sc(=O)n1C [Compound 19, 3,4-Dimethyl-5-[2-(3-trifluoromethyl-phenylamino)-pyrimidin-4-yl]-3H-thiazol-2-one]	1800	–	1700	5100	–	–
Cc1ccc([N+](=O)[O-])cc1Nc1nccc(-c2sc(=O)n(C)c2C)n1 [Compound 20, 3,4-Dimethyl-5-[2-(2-methyl-5-nitro-phenylamino)-pyrimidin-4-yl]-3H-thiazol-2-one]	85	–	6500	910	–	–
CCn1c(C)c(-c2ccnc(Nc3ccc(Cl)c(C(=O)OC)c3)n2)sc1=O [Compound 25, 2-Chloro-5-[4-(3-ethyl-4-methyl-2-oxo-2,3-dihydro-thiazol-5-yl)-pyrimidin-2-ylamino]-benzoic acid methyl ester]	4400	–	2700	–	23000	–
CCn1c(C)c(-c2ccnc(Nc3ccc(N(C)C)c([N+](=O)[O-])c3)n2)sc1=O [Compound 29, 5-[2-(4-Dimethylamino-3-nitro-phenylamino)-pyrimidin-4-yl]-3-ethyl-4-methyl-3H-thiazol-2-one]	7	–	33	43	–	170
Cc1c(-c2ccnc(Nc3ccc(Cl)cc3)n2)sc(=O)n1CCC(C)C [Compound 31, 5-[2-(4-Chloro-phenylamino)-pyrimidin-4-yl]-4-methyl-3-(3-methyl-butyl)-3H-thiazol-2-one]	–	–	–	430	–	–
Cc1c(-c2ccnc(Nc3ccc(Cl)nc3)n2)sc(=O)n1C [Compound 32, 5-[2-(6-Chloro-pyridin-3-ylamino)-pyrimidin-4-yl]-3,4-dimethyl-3H-thiazol-2-one]	6.5	500	68	–	–	–
Cc1c(-c2ccnc(Nc3ccc(Cl)nc3)n2)sc(=O)n1CCC(C)C [Compound 34, 5-[2-(6-Chloro-pyridin-3-ylamino)-pyrimidin-4-yl]-4-methyl-3-(3-methyl-butyl)-3H-thiazol-2-one]	1800	3500	1100	230	600	–
Cc1c(-c2ccnc(Nc3cc([N+](=O)[O-])ccc3N(C)C)n2)sc(=O)n1C [Compound 37, 5-[2-(2-Dimethylamino-5-nitro-phenylamino)-pyrimidin-4-yl]-3,4-dimethyl-3H-thiazol-2-one]	–	9900	8600	–	–	–
CCn1c(C)c(-c2ccnc(Nc3cccc(OC)c3)n2)sc1=O [Compound 50, 3-Ethyl-5-[2-(3-methoxy-phenylamino)-pyrimidin-4-yl]-4-methyl-3H-thiazol-2-one]	80	–	–	140	–	–
Cc1c(-c2ccnc(NCc3cccnc3)n2)sc(=O)n1C [Compound 83, 3,4-Dimethyl-5-{2-[(pyridin-3-ylmethyl)-amino]-pyrimidin-4-yl}-3H-thiazol-2-one]	320	–	1600	–	–	1300
Cc1c(-c2ccnc(N)n2)sc(=O)n1C [Compound 84, 5-(2-Amino-pyrimidin-4-yl)-3,4-dimethyl-3H-thiazol-2-one]	130	–	–	–	–	–
CC(=O)Nc1nccc(-c2sc(=O)n(C)c2C)n1 [Compound 85, N-[4-(3,4-Dimethyl-2-oxo-2,3-dihydro-thiazol-5-yl)-pyrimidin-2-yl]-acetamide]	290	–	–	–	–	–
